This note sets out measurements from ChEMBL document CHEMBL1201862, “PubChem BioAssay data set” (2004).

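Assay format: 96-well plates, 48-hour exposure. GI50 marks 50% less growth.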 Calls of active or inactive are those of the source. No stated cut-off is given here; in the data, active = GI50 up to about 1.1 µM and inactive = higher. Where only a bound is given, the exact number is not on record here.

Some test systems named below: A498; A549; CAKI-1; EKVX; HCC 2998; HL-60; HOP-92; MCF7; MDA-MB-435; Malme-3M; NCI/ADR-RES; OVCAR-3; OVCAR-4; OVCAR-8; RPMI-8226; RXF 393; SF-268; SK-MEL-2; SK-OV-3; SW-620.
What all share (assay): inhibition of tumour cell growth, NCI panel, 48 h

As for `Cc1cc(C)n(-c2nc(-n3nc(C)cc3C)nc(-n3nc(C)cc3C)n2)n1`, the GI50 with A498 was > 100 µM (inactive); with A549, > 100 µM (inactive); in the assay with CAKI-1, 39.2 µM (inactive); with EKVX, 40.2 µM (inactive); in the assay on HCC 2998, > 100 µM (inactive); with HL-60 it was > 100 µM (inactive). For the same compound, the GI50 with HOP-92 is > 100 µM (inactive); with MCF7, > 100 µM (inactive); with MDA-MB-435 it was > 100 µM (inactive); with Malme-3M it was 37.2 µM (inactive); in the assay with NCI/ADR-RES it was > 100 µM (inactive); in the assay on OVCAR-3 it was > 100 µM (inactive). The GI50 in the assay with OVCAR-4 was > 100 µM (inactive); in the assay on OVCAR-8 it was 68.9 µM (inactive); with RPMI-8226, 93.1 µM (inactive); with RXF 393, > 100 µM (inactive); in the assay on SF-268, > 100 µM (inactive); with SK-MEL-2, > 100 µM (inactive). Also, the GI50 in the assay with SK-OV-3 and with SW-620 was > 100 µM (inactive) throughout.
Regarding `CCOC(=O)C(=CNc1ccc(S(N)(=O)=O)cc1)C(=O)OCC`, the GI50 in the assay with A498, with A549, in the assay with CAKI-1, in the assay on EKVX, in the assay on HCC 2998 and in the assay with HL-60 was > 100 µM (inactive) in each case. Further, the GI50 with HOP-92, in the assay on MCF7, in the assay with MDA-MB-435, in the assay on Malme-3M, with NCI/ADR-RES and in the assay with OVCAR-3 was > 100 µM (inactive) throughout. Further, the GI50 in the assay on OVCAR-4, in the assay with OVCAR-8, in the assay on RPMI-8226, with RXF 393, with SF-268 and with SK-MEL-2 was > 100 µM (inactive) in each case. Moreover, the GI50 in the assay on SK-OV-3 and with SW-620 was > 100 µM (inactive) in each case.
As for `NNC(=O)Nc1nc2ccc(NN)cc2[nH]1`, the GI50 in the assay with A498 is 23.6 µM (inactive); with A549 it was 74 µM (inactive); with CAKI-1 it was 41.7 µM (inactive); in the assay on EKVX, 65.5 µM (inactive); in the assay with HCC 2998, 18.5 µM (inactive); in the assay with HL-60, 12.5 µM (inactive). Also, the GI50 is 19.7 µM (inactive) in the assay with HOP-92; 26.1 µM (inactive) in the assay with MCF7; 21.5 µM (inactive) with MDA-MB-435; 59.6 µM (inactive) in the assay on Malme-3M; 47.8 µM (inactive) with NCI/ADR-RES; 24.5 µM (inactive) in the assay with OVCAR-3. Also, the GI50 is 34.3 µM (inactive) in the assay on OVCAR-4; 54 µM (inactive) in the assay with OVCAR-8; 7 µM (inactive) in the assay on RPMI-8226; 25 µM (inactive) with RXF 393; 37.2 µM (inactive) with SF-268; 44 µM (inactive) in the assay on SK-MEL-2. Further, the GI50 with SK-OV-3 is 40.2 µM (inactive); in the assay with SW-620, 23.8 µM (inactive).
Regarding `NCCN(CCN)/[N+]([O-])=N/O`, the GI50 in the assay with A498, in the assay with A549, in the assay with CAKI-1, in the assay with EKVX, in the assay with HCC 2998 and in the assay on HL-60 was > 100 µM (inactive) in each case. For the same compound, the GI50 with HOP-92 is > 100 µM (inactive); in the assay on MCF7, 47.4 µM (inactive); in the assay with MDA-MB-435, > 100 µM (inactive); with Malme-3M, > 100 µM (inactive); in the assay with NCI/ADR-RES, 82.8 µM (inactive); in the assay with OVCAR-3 it was > 100 µM (inactive). The GI50 in the assay with OVCAR-4, in the assay on OVCAR-8, in the assay on RPMI-8226, in the assay on RXF 393, with SF-268 and with SK-MEL-2 was > 100 µM (inactive) each time. Also, the GI50 in the assay on SK-OV-3 and in the assay on SW-620 was > 100 µM (inactive) each time.
As to `O=C1c2cccnc2C(=O)C2C3C=CC(C3)C12` (stereo not given), the GI50 with A498 was 21.2 µM (inactive); in the assay with A549 it was 12.4 µM (inactive); with CAKI-1, 14.4 µM (inactive); with EKVX it was 13.4 µM (inactive); in the assay with HCC 2998, 15.8 µM (inactive); with HL-60 it was 1.74 µM (inactive). Besides, the GI50 was 12.9 µM (inactive) with HOP-92; 3.52 µM (inactive) with MCF7; 2.25 µM (inactive) in the assay on MDA-MB-435; 15.1 µM (inactive) in the assay with Malme-3M; 4.52 µM (inactive) in the assay with NCI/ADR-RES; 13.5 µM (inactive) with OVCAR-3. Further, the GI50 with OVCAR-4 was 5.01 µM (inactive); with OVCAR-8 it was 5.48 µM (inactive); with RPMI-8226, 2.49 µM (inactive); in the assay on RXF 393, 2.69 µM (inactive); in the assay on SF-268 it was 10.2 µM (inactive); in the assay with SK-MEL-2, 5.08 µM (inactive). Also, the GI50 in the assay on SK-OV-3 was 18.3 µM (inactive); in the assay on SW-620, 4.41 µM (inactive).
As to `CCNC(=O)OCC1C2=C(C(=O)C(C)=C(N)C2=O)N2CC3C(N3C)C12OC` (stereo not given), the GI50 in the assay with A498 was 20.9 µM (inactive); with A549, 5.11 µM (inactive); with CAKI-1 it was 3.95 µM (inactive); with EKVX, > 94.2 µM (inactive); in the assay on HCC 2998, 14.6 µM (inactive); in the assay on HL-60, 3.94 µM (inactive). Further, the GI50 with HOP-92 was > 75 µM (inactive); with MCF7 it was 4.95 µM (inactive); in the assay on MDA-MB-435 it was 75.7 µM (inactive); with Malme-3M, 17.6 µM (inactive); in the assay with NCI/ADR-RES it was > 75.5 µM (inactive); in the assay on OVCAR-3 it was 21.9 µM (inactive). The GI50 was 26.6 µM (inactive) in the assay with OVCAR-4; 21.7 µM (inactive) in the assay on OVCAR-8; 14.4 µM (inactive) in the assay on RPMI-8226; 32.5 µM (inactive) in the assay on RXF 393; 15.7 µM (inactive) in the assay on SF-268; 30.3 µM (inactive) with SK-MEL-2. The GI50 in the assay with SK-OV-3 is 27.4 µM (inactive); in the assay on SW-620 it was 9.93 µM (inactive).
For `CCN1CCC(O)(/C=C/c2ccc(Cl)c(Cl)c2)C(C(=O)/C=C/c2ccc(Cl)c(Cl)c2)C1` (stereo not given), the GI50 with A498 is 0.891 µM (active); in the assay with A549 it was 0.673 µM (active); with CAKI-1, 1.82 µM (inactive); with EKVX, 0.731 µM (active); in the assay on HCC 2998 it was 1.71 µM (inactive); in the assay with HL-60, 0.246 µM (active). Further, the GI50 in the assay with HOP-92 was 0.621 µM (active); in the assay on MCF7 it was 1.06 µM (active); with MDA-MB-435, 0.877 µM (active); with Malme-3M, 1.05 µM (active); with NCI/ADR-RES it was 0.843 µM (active); in the assay on OVCAR-3, 0.764 µM (active). Besides, the GI50 in the assay on OVCAR-4 was 0.632 µM (active); in the assay with OVCAR-8, 0.745 µM (active); in the assay with RPMI-8226, 0.136 µM (active); with RXF 393, 1.35 µM (inactive); with SF-268 it was 1.06 µM (active); in the assay on SK-MEL-2 it was 1.04 µM (active). The GI50 was 1.72 µM (inactive) in the assay on SK-OV-3 and 0.466 µM (active) with SW-620.
With `N#CC(NCc1cccc(CNC(C#N)c2ccccc2)c1)c1ccccc1` (stereo not given), the GI50 was > 100 µM (inactive) in the assay on A498; 28.7 µM (inactive) with A549; > 100 µM (inactive) in the assay with CAKI-1; 60 µM (inactive) with EKVX; 14.9 µM (inactive) in the assay on HCC 2998; 20.7 µM (inactive) in the assay on HL-60. Besides, the GI50 in the assay with HOP-92 is 34.3 µM (inactive); with MCF7 it was 19.3 µM (inactive); in the assay on MDA-MB-435, 99.8 µM (inactive); with Malme-3M it was 26.9 µM (inactive); in the assay with NCI/ADR-RES, > 100 µM (inactive); with OVCAR-3 it was > 100 µM (inactive). For the same compound, the GI50 in the assay on OVCAR-4 is 56 µM (inactive); with OVCAR-8, 67 µM (inactive); with RPMI-8226 it was 21.1 µM (inactive); in the assay on RXF 393 it was 60.4 µM (inactive); with SF-268, 52.1 µM (inactive); with SK-MEL-2 it was > 100 µM (inactive). Besides, the GI50 in the assay with SK-OV-3 is > 100 µM (inactive); in the assay with SW-620, 24.5 µM (inactive).
Turning to `CO/N=C1\CC(C)N2C(=O)C(C(C)C)NC(=O)C(NC(=O)c3c4nc5c(C(=O)NC6C(=O)NC(C(C)C)C(=O)N7C(C)CC(O)C7C(=O)N(C)CC(=O)N(C)C(C(C)C)C(=O)OC6C)ccc(C)c5oc-4c(C)c(=O)c3N)C(CO)OC(=O)C(C)N(C)C(=O)CN(C)C(=O)C12` (stereo not given), the GI50 with A498 is 1.13 µM (inactive); in the assay on A549, 0.815 µM (active); with CAKI-1, 4.54 µM (inactive); in the assay with EKVX it was 4 µM (inactive); in the assay on HCC 2998, 0.869 µM (active); with HL-60 it was 0.555 µM (active). The GI50 in the assay on HOP-92 is 0.753 µM (active); with MCF7, 0.34 µM (active); in the assay with MDA-MB-435, 0.824 µM (active); in the assay on Malme-3M, 0.374 µM (active); with NCI/ADR-RES, 16.6 µM (inactive); in the assay on OVCAR-3, 1.42 µM (inactive). For the same compound, the GI50 in the assay on OVCAR-4 was 5.82 µM (inactive); in the assay with OVCAR-8, 0.617 µM (active); in the assay on RPMI-8226, 0.0984 µM (active); in the assay on RXF 393, 0.865 µM (active); in the assay with SF-268, 0.986 µM (active); with SK-MEL-2, 0.308 µM (active). The GI50 is 3.66 µM (inactive) in the assay with SK-OV-3 and 0.346 µM (active) in the assay with SW-620.
As for `Cc1cc(NC(=O)NC(=O)c2ccccc2NC(=O)CN(C)C)ccc1Oc1ncc(Br)cn1`, the GI50 with A498 is 0.929 µM (active); in the assay with A549, 3.54 µM (inactive); with CAKI-1, 3.68 µM (inactive); with EKVX, 12.9 µM (inactive); in the assay on HCC 2998, 1.22 µM (inactive); in the assay on HL-60, 0.658 µM (active). For the same compound, the GI50 in the assay on HOP-92 is 20.3 µM (inactive); in the assay on MCF7, 0.809 µM (active); in the assay with MDA-MB-435, 0.289 µM (active); in the assay on Malme-3M it was 6.84 µM (inactive); in the assay on NCI/ADR-RES, 1.05 µM (active); in the assay on OVCAR-3, 1.04 µM (active). Also, the GI50 is 71.3 µM (inactive) with OVCAR-4; 6.84 µM (inactive) with OVCAR-8; 10.4 µM (inactive) in the assay with RPMI-8226; 1.98 µM (inactive) in the assay with RXF 393; 10 µM (inactive) with SF-268; 10.4 µM (inactive) in the assay with SK-MEL-2. Further, the GI50 in the assay with SK-OV-3 is 2.81 µM (inactive); in the assay on SW-620 it was 2.02 µM (inactive).
